Non-standard residues stand in square brackets, D forms with d. Residues, ends and D or L forms follow the SMILES beside them. dPhe(4-Cl) = N[C@H](Cc1ccc(Cl)cc1)C(=O)O; d2Nal = N[C@H](Cc1ccc2ccccc2c1)C(=O)O; dCit = NC(=O)NCCC[C@@H](N)C(=O)O; d3Pal = N[C@H](Cc1cccnc1)C(=O)O
Key:
[1] = system: prostate carcinoma patients; settings: cited from earlier work
BPH patients = settings: 500 μg every 12 hours for 4 weeks, cited from earlier work
[2] = system: benign prostate hypertrophy (BPH) patients; test: Clinical therapy of BPH with Cetrorelix (Example 1); type: in vivo, human; settings: 4 to 8 weeks therapy regimen
Protocol: Cetrorelix is administered in a dose of 0.5 mg to 2 mg daily for 4 to 8 weeks for the therapy of BPH. A dose of 5 mg to 30 mg, dispensed once per week or every 10 days also over a time period of 4 to 8 weeks as well as one every two weeks or one injection per month of 20 mg to 60 mg can also decisively improve the clinical symptoms and signs. […] The prostate volume decreases by 20 to 40% during the treatment time of 4 to 8 weeks. […] In addition, at least 30% of the patients achieve an improvement of the urine flow of 6 ml/sec with this therapy. This is almost equivalent to an improvement like that associated with the golden standard operation, and in considerably shorter time. […] These clinical benefits continue for at least 3 to 6 months after therapy. This allows a long-term therapy of BPH with only an intermittent treatment of 2 to max. 4 injection cycles over 4 to 8 weeks.
This therapy represents a significant therapeutic advance in the treatment of BPH since it not only achieves an improvement of the clinical symptoms of BPH but also a diminution of the prostate and an improvement of the urine flow like those associated with surgery The protocols of the invention avoid the negative consequences of an operation, e.g. urine incontinence, retrograde ejaculation, blood loss with the consequence of blood transfusions and also the risks of infection associated with surgery.

[3] = 500 μg every 12 hours, end of the 6 weeks of therapy

Structure (SMILES): CC(=O)N[C@H](Cc1ccc2ccccc2c1)C(=O)N[C@H](Cc1ccc(Cl)cc1)C(=O)N[C@H](Cc1cccnc1)C(=O)N[C@@H](CO)C(=O)N[C@@H](Cc1ccc(O)cc1)C(=O)N[C@H](CCCNC(N)=O)C(=O)N[C@@H](CC(C)C)C(=O)N[C@@H](CCCNC(=N)N)C(=O)N1CCC[C@H]1C(=O)N[C@H](C)C(N)=O [Cetrorelix] (Ac-[d2Nal][dPhe(4-Cl)][d3Pal]SY[dCit]LRP[dA]-NH2)
- testosterone levels, initially ([1]; 500 μg every 12 hours for 6 weeks, all patients, initial phase): lowering in testosterone levels to a castration level
- overall condition of the patient [1, 3]: considerable improvement
- testosterone values at the end of therapy [1, 3]: at the castration levels
- testosterone levels during treatment (BPH patients; BPH patients, no castration values during the last three weeks): fluctuated at subnormal levels
- testosterone levels, initially (BPH patients; all patients, initial phase): lowering in testosterone levels to a castration level
- prostate volume (BPH patients): distinct decrease
- symptoms of dysuria (BPH patients): distinct decrease
- patients achieving an improvement of the urine flow of 6 ml/sec [2]: at least 30%
- quality of life [2]: significant improvements
- sexual performance [2]: No limitations in sexual performance are observed
- testosterone level [2]: Submaximal decreases of testosterone occur, but these are above those levels associated with castration
- increase of the peak flow of the urine ([2]; comparable to the α-blockers): approximately 3 ml/sec

From patent publication US6054432A, “Means for treating prostate hypertrophy and prostate cancer” (Asta Medica Aktiengesellschaft, priority 1997, dated 2000)
